Test results as given in patent US10577365B2, “Derivatives of quinoline as inhibitors of DYRK1A and/or DYRK1B kinases” (Felicitex Therapeutics, Inc., priority 2016, dated 2020).
pIC50: −log10 of the molar value. Counter-ions that a name gives are not always drawn. Like-named read-outs stand apart in the source and are kept apart here.

How the values were obtained:
[1] = target: T1, DYRK1A (Homo sapiens, UniProt Q13627); assay: DYRK1A in vitro kinase assay (ADP-Glo); type: biochemical; conditions: ATP 70 μM (Km), substrate 3 μM, enzyme 2 nM or 0.7 nM, 30 min, rt
T1 construct: purchased Carna Bioscence (Carna Biosciences) 04-130
Experimental: The compounds of the present invention were tested for their inhibitory activity against DYRK1A and DYRK1B kinases once or several times. When tested more than once, the data are reported herein as average value, wherein the average value, also referred to as the mean value, represents the sum of obtained values divided by the number of times tested.
DYRK-inhibitory activity of the compounds of the present invention was tested using the ADP-Glo™ assay as described in the following paragraphs. The procedure for determining the IC50 values with the ADP-Glo™ assay in in vitro kinase assays consists of two parts:
1. Kinase reaction performed under optimized conditions;
2. Detection of ADP as a product of the reaction using ADP-Glo™ system (Promega).
The tested compounds indicated in Table 5 below were dissolved in DMSO, then transferred to the V-bottom PP plate to perform nine serial dilutions (in order to obtain dose-response curves) in 25% DMSO, as indicated in Table 5 below.
The optimized conditions for performing DYRK1A in vitro kinase assay were as follows:
For compound testing, the following protocol was used: two mixes were prepared on ice, Mix 1 containing substrate, ATP and reaction buffer and Mix 2 containing reaction buffer and the kinase. 15 μL per well of Mix 1 was transferred to wells of a 96-well plate. Next, 2.5 μL of the pre-diluted compound to be tested was added to Mix 1, followed by the addition of 12.5 μL of Mix 2. Total reaction volume was 30 μL per well. The experiment was performed in duplicate for each data point being examined. Dose response curve for the positive control was carried out on each assay plate by adding the reference inhibitory compound staurosporine. For each test, three controls were also included: (i) 30 μL of the reaction mixture containing: reaction buffer, ATP, kinase, DMSO without substrate (quasi-positive control); (ii) 30 μL of the reaction mixture containing reaction buffer, substrate, ATP, DMSO without kinase (background control); (iii) 30 μL of the reaction mixture containing reaction buffer, substrate, kinase, ATP, DMSO (vehicle control). Final concentration of DMSO in the reaction was 2%. To detect the ADP amount produced during the kinase reaction, the commercially available kit ADP-Glo™ Kinase Assay (Promega, cat. No # V9103) was used. The protocol used for the detection was based on the Technical Bulletin of the ADP-Glo™ Kinase Assay (Promega) and was adapted to 96-well plate containing 30 μL reaction mixture as explained below.
30 μL of ADP-Glo™ Reagent was added to each well of a 96 well plate containing 30 μL of reaction mixture to terminate the kinase reaction and deplete the remaining ATP. The plate was incubated for 60 minutes on a shaker at rt. 60 μL of Kinase Detection Solution was then added to each well of 96-well plate containing 60 μL of the solution to convert ADP to ATP and to allow the newly synthesized ATP to be measured using a luciferase/luciferin reaction (ratio of kinase reaction volume to ADP Glo™ Reagent volume to Kinase Detection Solution volume was maintained at 1:1:2). The plate was incubated for 40 minutes on a shaker at rt, protected from light. Luminescence was measured in the plate reader, wherein the luminescent signal is proportional to the ADP concentration produced and thus correlates with kinase activity.
After data normalization to controls (complete reaction mix and no-substrate control) and transforming X values (test compound concentrations) using: X=log(X), IC50 values were determined, using the GraphPad Prism 6.0 [log(agonist) vs. normalized response—Variable slope].

[2] = target: T2, DYRK1B (Homo sapiens, UniProt Q9Y463); assay: DYRK1B in vitro kinase assay (ADP-Glo); type: biochemical
T2 construct: purchased Carna Bioscence (Carna Biosciences) 04-131
Experimental: The compounds of the present invention were tested for their inhibitory activity against DYRK1A and DYRK1B kinases once or several times. When tested more than once, the data are reported herein as average value, wherein the average value, also referred to as the mean value, represents the sum of obtained values divided by the number of times tested. DYRK-inhibitory activity of the compounds of the present invention was tested using the ADP-Glo™ assay as described in the following paragraphs. The procedure for determining the IC50 values with the ADP-Glo™ assay in in vitro kinase assays consists of two parts: […] Kinase reaction performed under optimized conditions; 2. Detection of ADP as a product of the reaction using ADP-Glo™ system (Promega). The tested compounds indicated in Table 5 below were dissolved in DMSO, then transferred to the V-bottom PP plate to perform nine serial dilutions (in order to obtain dose-response curves) in 25% DMSO, as indicated in Table 5 below. The optimized conditions for performing DYRK1B in vitro kinase assay were as follows: [table] For compound testing, the following protocol was used: two mixes were prepared on ice, Mix 1 containing substrate, ATP and reaction buffer and Mix 2 containing reaction buffer and the kinase. 15 μL per well of Mix 1 was transferred to wells of a 96-well plate. […] Total reaction volume was 30 μL per well. The experiment was performed in duplicate for each data point being examined. Dose response curve for the positive control was carried out on each assay plate by adding the reference inhibitory compound staurosporine. For each test, three controls were also included: (i) 30 μL of the reaction mixture containing: reaction buffer, ATP, kinase, DMSO without substrate (quasi-positive control); (ii) 30 μL of the reaction mixture containing reaction buffer, substrate, ATP, DMSO without kinase (background control); (iii) 30 μL of the reaction mixture containing reaction buffer, substrate, kinase, ATP, DMSO (vehicle control). Final concentration of DMSO in the reaction was 2%. To detect the ADP amount produced during the kinase reaction, the commercially available kit ADP-Glo™ Kinase Assay (Promega, cat. No # V9103) was used. The protocol used for the detection was based on the Technical Bulletin of the ADP-Glo™ Kinase Assay (Promega) and was adapted to 96-well plate containing 30 μL reaction mixture as explained below. 30 μL of ADP-Glo™ Reagent was added to each well of a 96 well plate containing 30 μL of reaction mixture to terminate the kinase reaction and deplete the remaining ATP. The plate was incubated for 60 minutes on a shaker at rt. 60 μL of Kinase Detection Solution was then added to each well of 96-well plate containing 60 μL of the solution to convert ADP to ATP and to allow the newly synthesized ATP to be measured using a luciferase/luciferin reaction (ratio of kinase reaction volume to ADP Glo™ Reagent volume to Kinase Detection Solution volume was maintained at 1:1:2). The plate was incubated for 40 minutes on a shaker at rt, protected from light. Luminescence was measured in the plate reader, wherein the luminescent signal is proportional to the ADP concentration produced and thus correlates with kinase activity. After data normalization to controls (complete reaction mix and no-substrate control) and transforming X values (test compound concentrations) using: X=log(X), IC50 values were determined, using the GraphPad Prism 6.0 [log(agonist) vs. normalized response—Variable slope].

[3] = ADP-Glo assay, ATP 15 μM (Km), substrate 7 μM, enzyme 1 nM or 0.3 nM, 1 h, rt, read-out: DYRK1B IC50

T2 sequence (Q9Y463 whole entry): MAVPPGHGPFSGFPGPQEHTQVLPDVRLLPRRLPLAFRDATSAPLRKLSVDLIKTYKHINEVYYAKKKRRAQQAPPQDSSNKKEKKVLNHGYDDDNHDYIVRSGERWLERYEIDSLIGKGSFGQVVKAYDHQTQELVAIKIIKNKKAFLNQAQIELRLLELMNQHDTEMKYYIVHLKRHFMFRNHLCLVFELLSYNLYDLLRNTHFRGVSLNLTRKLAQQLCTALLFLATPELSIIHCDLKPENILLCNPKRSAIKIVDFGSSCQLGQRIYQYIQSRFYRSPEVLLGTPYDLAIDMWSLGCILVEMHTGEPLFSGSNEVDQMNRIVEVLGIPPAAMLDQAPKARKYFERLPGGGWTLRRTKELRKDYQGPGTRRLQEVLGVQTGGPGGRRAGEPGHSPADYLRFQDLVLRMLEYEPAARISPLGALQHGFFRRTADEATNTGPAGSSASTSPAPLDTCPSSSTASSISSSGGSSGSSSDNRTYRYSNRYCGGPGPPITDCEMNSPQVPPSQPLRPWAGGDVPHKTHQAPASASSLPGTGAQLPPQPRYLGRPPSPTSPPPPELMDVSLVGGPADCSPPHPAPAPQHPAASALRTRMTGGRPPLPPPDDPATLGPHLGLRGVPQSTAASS

Row | SMILES | pIC50 [1] | pIC50 [2, 3] | pIC50 [2]
1 | Cc1cc(-c2c[nH]c3ncccc23)cc2c(-c3ccccc3)ccnc12 [Example 17, 8-Methyl-4-phenyl-6-{1H-pyrrolo[2,3-b]pyridin-3-yl}quinoline] | < 7.00 | < 7.00 | 
2 | C=CC1CN2CCC1CC2[C@H](O)c1ccnc2ccc(-c3c[nH]c4ncccc34)cc12 (stereo in doubt) [Example 9, {5-Ethenyl-1-azabicyclo[2.2.2]octan-2-yl}(6-{1H-pyrrolo[2,3-b]pyridin-3-yl}quinolin-4-yl)methanol] | > 8.00 | > 8.00 | 
3 | O=C(NCc1ccccc1)c1cnc2[nH]cc(-c3cc(Cl)c4ncccc4c3)c2c1 [Example 32, N-Benzyl-3-(8-chloroquinolin-6-yl)-1H-pyrrolo[2,3-b]pyridine-5-carboxamide] | 7.00 to 8.00 | > 8.00 | 
4 | CNC(=O)c1cnc2[nH]cc(-c3cc(OC)c4ncccc4c3)c2c1 [Example 29, 3-(8-Methoxyquinolin-6-yl)-N-methyl-1H-pyrrolo[2,3-b]pyridine-5-carboxamide] |  | 7.00 to 8.00 | 
5 | NC(=O)c1cnc2[nH]cc(-c3cc(F)c4ncccc4c3)c2c1 [Example 33, 3-(8-Fluoroquinolin-6-yl)-1H-pyrrolo[2,3-b]pyridine-5-carboxamide] | > 8.00 | > 8.00 | 
6 | N[C@H]1CC[C@H](Nc2ccnc3ccc(-c4c[nH]c5ncccc45)cc23)CC1 [Example 4, trans-1-N-(6-{1H-Pyrrolo[2,3-b]pyridin-3-yl}quinolin-4-yl)cyclohexane-1,4-diamine] | < 7.00 |  | 
7 | CNC(=O)c1cnc2[nH]cc(-c3ccc4ncc(NC(C)=O)c(N5CCOCC5)c4c3)c2c1 [Example 57, 3-[3-Acetamido-4-(morpholin-4-yl)quinolin-6-yl]-N-methyl-1H-pyrrolo[2,3-b]pyridine-5-carboxamide] | > 8.00 | > 8.00 | 
8 | CNC(=O)c1cnc2[nH]cc(-c3ccc4ncccc4c3)c2c1 [Example 25, N-Methyl-3-(quinolin-6-yl)-1H-pyrrolo[2,3-b]pyridine-5-carboxamide] | > 8.00 | > 8.00 | 
9 | O=C(NCc1cccnc1)c1cnc2[nH]cc(-c3ccc4ncc(NCC5CCOCC5)cc4c3)c2c1 [Example 63, 3-{3-[(Oxan-4-ylmethyl)amino]quinolin-6-yl}-N-(pyridin-3-ylmethyl)-1H-pyrrolo[2,3-b]pyridine-5-carboxamide] | > 8.00 | > 8.00 | 
10 | C=CCCCc1ccnc2ccc(-c3c[nH]c4ncc(CN(C)CC=C)cc34)cc12 [Example 21, Methyl({3-[4-(pent-4-en-1-yl)quinolin-6-yl]-1H-pyrrolo[2,3-b]pyridin-5-yl}methyl)(prop-2-en-1-yl)amine] | 7.00 to 8.00 | > 8.00 | 
11 | CNC(=O)c1cnc2[nH]cc(-c3cc(C)c4nccc(-c5cccnc5)c4c3)c2c1 [Example 42, N-Methyl-3-[8-methyl-4-(pyridin-3-yl)quinolin-6-yl]-1H-pyrrolo[2,3-b]pyridine-5-carboxamide] |  | 7.00 to 8.00 | 
12 | C=CCN(C)Cc1cnc2[nH]cc(-c3cc(F)c4nccc(-c5cccnc5)c4c3)c2c1 [Example 52, ({3-[8-Fluoro-4-(pyridin-3-yl)quinolin-6-yl]-1H-pyrrolo[2,3-b]pyridin-5-yl}methyl)(methyl)(prop-2-en-1-yl)amine] | 7.00 to 8.00 | > 8.00 | 
13 | CN1CCC(Nc2ccnc3ccc(-c4c[nH]c5ncccc45)cc23)CC1 [Example 10, N-(1-Methylpiperidin-4-yl)-6-{1H-pyrrolo[2,3-b]pyridin-3-yl}quinolin-4-amine] |  | 7.00 to 8.00 | 
14 | c1cnc2ccc(-c3c[nH]c4ncccc34)cc2c1 [Example 2, 6-{1H-Pyrrolo[2,3-b]pyridin-3-yl}quinoline] | > 8.00 | > 8.00 | 
15 | CNC(=O)c1cnc2[nH]cc(-c3cc(F)c4nccc(N5CCC[C@H](N)C5)c4c3)c2c1 [Example 43, 3-{4-[(3S)-3-Aminopiperidin-1-yl]-8-fluoroquinolin-6-yl}-N-methyl-1H-pyrrolo[2,3-b]pyridine-5-carboxamide hydrochloride] | > 8.00 | > 8.00 | 
16 | C=CCN(C)C(=O)c1cnc2[nH]cc(-c3ccc4nccc(Cl)c4c3)c2c1 [Example 20, 3-(4-Chloroquinolin-6-yl)-N-methyl-N-(prop-2-en-1-yl)-1H-pyrrolo[2,3-b]pyridine-5-carboxamide] | 7.00 to 8.00 | > 8.00 | 
17 | N[C@H]1CCN(c2ccnc3ccc(-c4c[nH]c5ncccc45)cc23)C1 [Example 5, (3S)-1-(6-{1H-Pyrrolo[2,3-b]pyridin-3-yl}quinolin-4-yl)pyrrolidin-3-amine] | > 8.00 |  | 
18 | Clc1ccnc2ccc(-c3c[nH]c4ncccc34)cc12 [Example 1, 4-Chloro-6-{1H-pyrrolo[2,3-b]pyridin-3-yl}quinoline] | 7.00 to 8.00 |  | 
19 | CN1CCC(Nc2c(C#N)cnc3ccc(-c4c[nH]c5ncccc45)cc23)CC1 [Example 64, 4-[(1-Methylpiperidin-4-yl)amino]-6-{1H-pyrrolo[2,3-b]pyridin-3-yl}quinoline-3-carbonitrile] |  | 7.00 to 8.00 | 
20 | Cc1cc(-c2c[nH]c3ncccc23)cc2cccnc12 [Example 12, 8-Methyl-6-{1H-pyrrolo[2,3-b]pyridin-3-yl}quinoline hydrochloride] |  |  | 7.00 to 8.00
21 | COc1cc(-c2c[nH]c3ncccc23)cc2cccnc12 [Example 15, 8-Methoxy-6-{1H-pyrrolo[2,3-b]pyridin-3-yl}quinoline] |  | 7.00 to 8.00 | 
22 | Cc1cc(-c2c[nH]c3ncccc23)cc2c(-c3cccnc3)ccnc12 [Example 18, 8-Methyl-4-(pyridin-3-yl)-6-{1H-pyrrolo[2,3-b]pyridin-3-yl}quinoline] |  | 7.00 to 8.00 | 
